The record followed here is ChEMBL document CHEMBL5335794, “Discovery of novel multifunctional ligands targeting GABA transporters, butyrylcholinesterase, β-secretase, and amyloid β aggregation as potential treatment of Alzheimer's disease” (Eur J Med Chem, 2023).

Where only a bound is given, the exact number is not on record here.

As usually defined, the inhibition is the change of the read-out against control, counted positive when it falls. Usually IC50 stands for the concentration that gives 50% inhibition. Lower therefore signals inhibition by little substance.

The target in assay [1] is Acetylcholinesterase (Electrophorus electricus) (UniProt O42275). In words: Inhibition of electric eel AChE using acetylthiocholine iodide as substrate at 10 uM preincubated for 5 mins followed by substrate addition and measured after 5 mins by DTNB reagent based Ellman's method relative to control. Particulars: time 10.0 min. A general note: DTNB colorimetry detects thiols as they appear.
Sequence of Acetylcholinesterase (Electrophorus electricus) (O42275 24-633 limits assumed): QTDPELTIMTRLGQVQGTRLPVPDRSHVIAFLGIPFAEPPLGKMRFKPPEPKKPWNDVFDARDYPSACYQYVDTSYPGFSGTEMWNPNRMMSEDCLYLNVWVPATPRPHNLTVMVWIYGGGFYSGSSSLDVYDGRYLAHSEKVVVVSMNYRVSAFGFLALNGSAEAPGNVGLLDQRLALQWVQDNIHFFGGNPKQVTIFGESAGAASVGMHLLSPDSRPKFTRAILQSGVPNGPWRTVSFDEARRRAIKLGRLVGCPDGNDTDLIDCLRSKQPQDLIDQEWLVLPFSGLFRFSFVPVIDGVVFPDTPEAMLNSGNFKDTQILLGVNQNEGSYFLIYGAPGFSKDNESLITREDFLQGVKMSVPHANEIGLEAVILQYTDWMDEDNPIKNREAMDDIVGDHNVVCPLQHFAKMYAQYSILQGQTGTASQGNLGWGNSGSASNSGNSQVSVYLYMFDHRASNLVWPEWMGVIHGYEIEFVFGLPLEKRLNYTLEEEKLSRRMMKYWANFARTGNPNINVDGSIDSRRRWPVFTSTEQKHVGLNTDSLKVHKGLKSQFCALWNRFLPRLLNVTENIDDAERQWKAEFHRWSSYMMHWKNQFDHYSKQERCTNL

In assay [2] the target is Beta-secretase 1 (Homo sapiens, UniProt P56817). The following applies: dose 50.0 µM, time 60.0 min.
Sequence of Beta-secretase 1 (P56817 whole entry): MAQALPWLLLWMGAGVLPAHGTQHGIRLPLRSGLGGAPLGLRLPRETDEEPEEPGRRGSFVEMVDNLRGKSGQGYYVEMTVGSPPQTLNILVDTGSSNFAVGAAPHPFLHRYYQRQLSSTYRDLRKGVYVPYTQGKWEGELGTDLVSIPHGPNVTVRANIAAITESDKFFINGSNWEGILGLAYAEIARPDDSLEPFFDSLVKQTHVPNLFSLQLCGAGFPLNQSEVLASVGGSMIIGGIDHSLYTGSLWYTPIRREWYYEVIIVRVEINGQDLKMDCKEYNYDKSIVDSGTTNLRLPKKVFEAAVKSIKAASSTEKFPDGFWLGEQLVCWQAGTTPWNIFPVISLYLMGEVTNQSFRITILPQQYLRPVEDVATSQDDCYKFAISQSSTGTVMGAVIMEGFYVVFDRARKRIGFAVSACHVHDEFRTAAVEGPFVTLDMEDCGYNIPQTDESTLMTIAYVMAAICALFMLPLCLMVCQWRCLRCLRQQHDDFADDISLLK
Assay [3] addresses Cholinesterase (Equus caballus, UniProt P81908).
Description: Inhibition of equine serum BuChE using butyrylthiocholine iodide as substrate preincubated for 5 mins followed by substrate addition and measured after 5 mins by DTNB reagent based Ellman's method
In assay [4] the target is Cholinesterase (Equus caballus) (UniProt P81908). In words: Inhibition of equine serum BuChE using butyrylthiocholine iodide as substrate at 10 uM preincubated for 5 mins followed by substrate addition and measured after 5 mins by DTNB reagent based Ellman's method relative to control. Particulars: time 10.0 min.
Sequence of Cholinesterase (Equus caballus) (P81908 whole entry): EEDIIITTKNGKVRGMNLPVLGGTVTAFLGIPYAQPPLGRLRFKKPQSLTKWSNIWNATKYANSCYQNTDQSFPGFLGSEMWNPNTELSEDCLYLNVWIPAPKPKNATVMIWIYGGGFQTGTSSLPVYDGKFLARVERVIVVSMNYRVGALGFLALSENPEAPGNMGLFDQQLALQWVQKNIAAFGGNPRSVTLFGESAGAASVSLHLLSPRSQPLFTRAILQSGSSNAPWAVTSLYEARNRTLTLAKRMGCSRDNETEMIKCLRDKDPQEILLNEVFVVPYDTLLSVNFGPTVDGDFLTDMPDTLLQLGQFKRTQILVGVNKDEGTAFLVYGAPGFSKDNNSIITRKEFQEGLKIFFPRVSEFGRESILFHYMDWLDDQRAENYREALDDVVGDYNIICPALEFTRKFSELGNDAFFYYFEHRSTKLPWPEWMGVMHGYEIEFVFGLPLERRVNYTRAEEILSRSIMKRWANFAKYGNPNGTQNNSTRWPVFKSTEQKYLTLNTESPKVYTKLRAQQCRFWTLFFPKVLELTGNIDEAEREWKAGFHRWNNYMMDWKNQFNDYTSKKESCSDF

Sequence of Cholinesterase (P81908 whole entry): as above

On to `Cc1ccc(CNC(=O)C(CO)N(C)CCC=C2c3ccccc3C=Cc3ccccc32)cc1` (centres undefined), for which the inhibition in assay [1] came to 30%; in assay [2], 54%. Further, inhibition in assay [3] was half-maximal at 6.22 µM (IC50).
For the molecule `CN(CCC=C1c2ccccc2-c2ccccc21)C(CCO)C(=O)NCc1ccccc1Cl` (centres undefined), the inhibition is under 10% in assay [1] and 59% in assay [2]. The same molecule returned an IC50 in assay [3] of 1.63 µM.
In the case of `CN(CCC=C1c2ccccc2CCc2ccccc21)C(CO)C(=O)NCc1ccc(Cl)cc1` (centres undefined), the values for the inhibition in assay [1], in assay [4] and in assay [2] were under 10%, 36% and 34%, respectively.
On the same counts, the results for `CN(CCC=C1c2ccccc2CCc2ccccc21)C(CCO)C(=O)NCc1ccc(Cl)cc1` (centres undefined) are under 10%, 19% and 43%.
For the molecule `CN(CCC=C1c2ccccc2CCc2ccccc21)C(CO)C(=O)NCc1ccc(F)cc1` (centres undefined), the inhibition in assay [1] was under 10%; in assay [4], 32%; in assay [2], 48%.
`CC(=O)NCCC(C(=O)NCc1ccc(F)cc1)N(C)CCC=C1c2ccccc2CCc2ccccc21` (centres undefined): the inhibition is under 10% in assay [1], 47% in assay [4] and 54% in assay [2].
The matching figures for `CC(=O)NCCC(C(=O)NCc1ccc(Cl)cc1)N(C)CCC=C1c2ccccc2CCc2ccccc21` (centres undefined): under 10%, 24% and 49%.
The matching figures for `CN(CCC=C1c2ccccc2CCc2ccccc21)C(CCO)C(=O)NCc1ccccc1Cl` (centres undefined): 11%, 24% and 44%.
For the molecule `CN(CCC=C1c2ccccc2C=Cc2ccccc21)C(CO)C(=O)NCc1ccccc1Cl` (centres undefined), the inhibition came out at 12% in assay [1] and 52% in assay [2]. In assay [3], this molecule showed an IC50 of 8.23 µM.
Turning to `CC(O)CC(C(=O)NCc1ccccc1)N(C)CC/C=C/c1ccccc1-c1ccccc1` (racemic; form 2), the results for the inhibition in assay [1] and in assay [2] were under 10% and 4%, respectively.
For the molecule `CC(=O)NCCC(C(=O)NCc1ccccc1Cl)N(C)CCC=C1c2ccccc2CCc2ccccc21` (centres undefined), the inhibition in assay [1] was under 10%; in assay [4] it was 41%; in assay [2], 44%.
The matching figures for `CN(CCC=C1c2ccccc2C=Cc2ccccc21)C(CCO)C(=O)NCc1ccccc1Cl` (centres undefined): under 10%, 32% and 48%.
On the same counts, the results for `CC(=O)NCCC(C(=O)NCc1ccc(C)cc1)N(C)CCC=C1c2ccccc2CCc2ccccc21` (centres undefined) are under 10%, 43% and 36%.
The matching figures for `CN(CCC=C1c2ccccc2CCc2ccccc21)C(CO)C(=O)NCc1ccccc1Cl` (centres undefined): under 10%, 52% and 72%.
As for `Cc1ccc(CNC(=O)C(CCO)N(C)CCC=C2c3ccccc3CCc3ccccc32)cc1` (centres undefined), the inhibition in assay [1] is under 10%; in assay [4], 36%; in assay [2], 41%.
The matching figures for `CN(CCC=C1c2ccccc2C=Cc2ccccc21)C(CCO)C(=O)NCc1ccc(Cl)cc1` (centres undefined): under 10%, 21% and 48%.
`Cc1ccc(CNC(=O)C(CCO)N(C)CCC=C2c3ccccc3C=Cc3ccccc32)cc1` (centres undefined): the inhibition in assay [1] was under 10%; in assay [4] it was 35%; in assay [2] it was 47%.
The matching figures for `Cc1ccc(CNC(=O)C(CO)N(C)CCC=C2c3ccccc3CCc3ccccc32)cc1` (centres undefined): under 10%, 45% and 59%.
As to `CN(CCC=C1c2ccccc2C=Cc2ccccc21)C(CO)C(=O)NCc1ccc(F)cc1` (centres undefined), the inhibition was under 10% in assay [1] and 30% in assay [2]. The half-maximal inhibitory concentration (IC50) in assay [3] is 3.24 µM.
For the molecule `CN(CCC=C1c2ccccc2C=Cc2ccccc21)C(CO)C(=O)NCc1ccccc1` (centres undefined), the inhibition was under 10% in assay [1] and 29% in assay [2]. In addition, the IC50 in assay [3] was found to be 4.35 µM.
